Measured values taken from ChEMBL document CHEMBL1201862, “PubChem BioAssay data set” (2004).
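All cell lines were grown in 96-well plates and treated with compound for 48 hours. At the GI50, growth is halved.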 Activity calls are given as the source filed them. Rule as the data show it: active = GI50 up to about 1.1 µM and inactive = higher.

Experiments:
Assay in all cases: DTP human tumour cell line panel, 48 h
[1] = system: PC-3
[2] = system: HOP-92
[3] = system: NCI-H460
[4] = system: CCRF-CEM
[5] = system: SW-620
[6] = system: MDA-MB-231
[7] = system: DLD-1
[8] = system: SK-MEL-5
[9] = system: SK-MEL-28
[10] = system: OVCAR-5
[11] = system: A498
[12] = system: MDA-N
[13] = system: HCT-15
[14] = system: NCI-H23
[15] = system: SF-295
[16] = system: UACC-62
[17] = system: OVCAR-8
[18] = system: SF-539
[19] = system: HCT-116
[20] = system: ACHN
[21] = system: COLO 205
[22] = system: SR
[23] = system: LOX IMVI
[24] = system: KM-20L2
[25] = system: A549
[26] = system: T47D
[27] = system: CAKI-1
[28] = system: DU-145
[29] = system: Hs-578T
[30] = system: KM12
[31] = system: HCC 2998
[32] = system: NCI/ADR-RES
[33] = system: MDA-MB-435
[34] = system: HOP-18
[35] = system: MCF7
[36] = system: EKVX
[37] = system: RXF 393
[38] = system: SN12C
[39] = system: XF498
[40] = system: HOP-62
[41] = system: SNB-78
[42] = system: 786-0
[43] = system: UACC-257
[44] = system: NCI-H226
[45] = system: DMS-273
[46] = system: SNB-19
[47] = system: UO-31
[48] = system: NCI-H522
[49] = system: RPMI-8226
[50] = system: SF-268
[51] = system: Malme-3M
[52] = system: SNB-75
[53] = system: BT-549
[54] = system: OVCAR-4
[55] = system: HT-29
[56] = system: K562
[57] = system: IGROV-1
[58] = system: TK-10
[59] = system: OVCAR-3
[60] = system: SK-OV-3
[61] = system: M14
[62] = system: LXFL 529
[63] = system: MOLT-4
[64] = system: HL-60
[65] = system: U-251
[66] = system: SK-MEL-2
[67] = system: DMS-114
[68] = system: M19-MEL
[69] = system: RXF 631

With `N=c1nc2n(cc1F)[C@@H]1O[C@H](CO)[C@@H](O)[C@@H]1O2` the GI50 [1] was > 100 µM (inactive), the GI50 [2] was 11.3 µM (inactive) and the GI50 [3] was 0.286 µM (active). The GI50 [4] was < 12.2 nM (active), the GI50 [5] was > 20.5 µM (inactive) and the GI50 [6] was > 100 µM (inactive). For the same compound, the GI50 [7] was 1.44 µM (inactive), the GI50 [8] was 35.4 µM (inactive) and the GI50 [9] was > 63.7 µM (inactive). For the same compound, the GI50 [10] was > 100 µM (inactive), the GI50 [11] was 13.4 µM (inactive) and the GI50 [12] was > 100 µM (inactive). For the same compound, the GI50 [13] was greater than 90.2 µM, the GI50 [14] was 2.29 µM (inactive) and the GI50 [15] was 49.9 µM (inactive). For the same compound, the GI50 [16] was > 92.5 µM (inactive), the GI50 [17] was 1.04 µM (active) and the GI50 [18] was 53 µM (inactive). For the same compound, the GI50 [19] was 1.31 µM (inactive), the GI50 [20] was 2.12 µM (inactive) and the GI50 [21] was 14 µM (inactive). The GI50 [22] was 424 nM (active), the GI50 [23] was 1.06 µM (active) and the GI50 [24] was 2.99 µM (inactive). The GI50 [25] was 0.335 µM (active), the GI50 [26] was 18.4 µM (inactive) and the GI50 [27] was 3.45 µM (inactive). The GI50 [28] was 971 nM (active), the GI50 [29] was > 100 µM (inactive) and the GI50 [30] was > 100 µM (inactive). The GI50 [31] was > 56 µM (inactive), the GI50 [32] was 9.59 µM (inactive) and the GI50 [33] was 658 nM (active). The GI50 [34] was 13.4 µM (inactive), the GI50 [35] was 1.14 µM (inactive) and the GI50 [36] was > 100 µM (inactive). The GI50 [37] was > 40.7 µM (inactive), the GI50 [38] was 14.4 µM (inactive) and the GI50 [39] was > 100 µM (inactive). The GI50 [40] was 2.36 µM (inactive), the GI50 [41] was 62.2 µM (inactive) and the GI50 [42] was 4.46 µM (inactive). For the same compound, the GI50 [43] was > 23.6 µM (inactive), the GI50 [44] was 17.3 µM (inactive) and the GI50 [45] was 3.63 µM (inactive). The GI50 [46] was > 92.9 µM (inactive), the GI50 [47] was 24.6 µM (inactive) and the GI50 [48] was 4.18 µM (inactive). For the same compound, the GI50 [49] was 56.9 µM (inactive), the GI50 [50] was 4.22 µM (inactive) and the GI50 [51] was 9.42 µM (inactive). For the same compound, the GI50 [52] was > 70.6 µM (inactive), the GI50 [53] was > 100 µM (inactive) and the GI50 [54] was > 100 µM (inactive). For the same compound, the GI50 [55] was 34.4 µM (inactive), the GI50 [56] was 4.33 µM (inactive) and the GI50 [57] was 47.4 µM (inactive). For the same compound, the GI50 [58] was > 75.5 µM (inactive), the GI50 [59] was 9.1 µM (inactive) and the GI50 [60] was 8.55 µM (inactive). For the same compound, the GI50 [61] was 1.45 µM (inactive), the GI50 [62] was > 26.5 µM (inactive) and the GI50 [63] was 0.0336 µM (active). For the same compound, the GI50 [64] was 0.317 µM (active), the GI50 [65] was 24.8 µM (inactive) and the GI50 [66] was > 100 µM (inactive).
In the case of `O=C(CC1(O)C(=O)Nc2ccccc21)c1ccc2ccccc2c1` (stereo not given), the GI50 [2] is reported as > 100 µM (inactive), the GI50 [3] is reported as > 100 µM (inactive) and the GI50 [5] is reported as > 100 µM (inactive). The GI50 [7] was > 100 µM (inactive), the GI50 [8] was > 100 µM (inactive) and the GI50 [9] was > 100 µM (inactive). For the same compound, the GI50 [10] was > 100 µM (inactive), the GI50 [11] was > 100 µM (inactive) and the GI50 [13] was greater than 100 µM. For the same compound, the GI50 [14] was > 100 µM (inactive), the GI50 [15] was > 100 µM (inactive) and the GI50 [16] was > 100 µM (inactive). For the same compound, the GI50 [17] was > 100 µM (inactive), the GI50 [18] was > 100 µM (inactive) and the GI50 [19] was > 100 µM (inactive). For the same compound, the GI50 [20] was > 100 µM (inactive), the GI50 [21] was > 100 µM (inactive) and the GI50 [23] was > 100 µM (inactive). The GI50 [67] was > 100 µM (inactive), the GI50 [24] was > 100 µM (inactive) and the GI50 [25] was > 100 µM (inactive). The GI50 [27] was > 100 µM (inactive), the GI50 [31] was > 100 µM (inactive) and the GI50 [68] was > 100 µM (inactive). For the same compound, the GI50 [36] was > 100 µM (inactive), the GI50 [37] was > 100 µM (inactive) and the GI50 [38] was > 100 µM (inactive). The GI50 [39] was 93.8 µM (inactive), the GI50 [40] was > 100 µM (inactive) and the GI50 [41] was > 100 µM (inactive). The GI50 [42] was > 100 µM (inactive), the GI50 [43] was > 100 µM (inactive) and the GI50 [44] was 29.2 µM (inactive). The GI50 [45] was > 100 µM (inactive), the GI50 [46] was > 100 µM (inactive) and the GI50 [47] was 44.7 µM (inactive). For the same compound, the GI50 [48] was 99.5 µM (inactive), the GI50 [49] was > 100 µM (inactive) and the GI50 [50] was > 100 µM (inactive). For the same compound, the GI50 [51] was > 100 µM (inactive), the GI50 [52] was 78 µM (inactive) and the GI50 [54] was > 100 µM (inactive). For the same compound, the GI50 [55] was > 100 µM (inactive), the GI50 [56] was > 100 µM (inactive) and the GI50 [57] was > 100 µM (inactive). The GI50 [58] was > 100 µM (inactive), the GI50 [59] was > 100 µM (inactive) and the GI50 [60] was > 100 µM (inactive). For the same compound, the GI50 [69] was > 100 µM (inactive), the GI50 [61] was > 100 µM (inactive) and the GI50 [62] was > 100 µM (inactive). The GI50 [63] was > 100 µM (inactive), the GI50 [64] was > 100 µM (inactive) and the GI50 [66] was > 100 µM (inactive).
